These results are taken from patent publication US20180112258A1, “MEDICAL USES AND METHODS FOR TREATING CANCER USING MONOPOLAR SPINDLE 1 (MPS1) KINASE INHIBITORS” (THE INSTITUTE OF CANCER RESEARCH: ROYAL CANCER HOSPITAL, priority 2015, published 2018).

The target of assay [1] is T1, recombinant full-length MPS1 p.C604W (Homo sapiens, UniProt P33981, C604W).
T1 construct: made in house; host or cells: Sf9 insect cells (baculovirus, modified pFastBac1)
T1 sequence (P33981 1-857 C604W): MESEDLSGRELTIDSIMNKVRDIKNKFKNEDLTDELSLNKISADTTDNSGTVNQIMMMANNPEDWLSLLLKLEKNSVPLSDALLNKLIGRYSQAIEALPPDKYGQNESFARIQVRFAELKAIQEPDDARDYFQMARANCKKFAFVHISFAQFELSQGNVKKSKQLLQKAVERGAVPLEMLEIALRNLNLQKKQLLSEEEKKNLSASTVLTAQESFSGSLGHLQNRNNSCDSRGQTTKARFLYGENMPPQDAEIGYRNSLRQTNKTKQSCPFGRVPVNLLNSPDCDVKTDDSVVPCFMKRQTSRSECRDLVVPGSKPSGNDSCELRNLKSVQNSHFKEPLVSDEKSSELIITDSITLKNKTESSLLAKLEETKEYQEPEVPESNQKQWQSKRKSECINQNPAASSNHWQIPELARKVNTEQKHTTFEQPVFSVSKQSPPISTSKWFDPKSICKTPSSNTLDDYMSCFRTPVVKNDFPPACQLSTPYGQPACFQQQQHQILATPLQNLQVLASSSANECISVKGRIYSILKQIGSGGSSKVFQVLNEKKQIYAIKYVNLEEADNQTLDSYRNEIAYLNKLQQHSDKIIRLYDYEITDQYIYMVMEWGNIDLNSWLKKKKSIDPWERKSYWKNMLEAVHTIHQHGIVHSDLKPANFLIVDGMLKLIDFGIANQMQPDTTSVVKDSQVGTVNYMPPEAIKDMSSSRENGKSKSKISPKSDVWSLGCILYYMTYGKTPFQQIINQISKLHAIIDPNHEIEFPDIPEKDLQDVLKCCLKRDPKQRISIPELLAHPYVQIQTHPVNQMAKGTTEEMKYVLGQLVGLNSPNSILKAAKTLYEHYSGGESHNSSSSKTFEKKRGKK
Put plainly: Recombinant MPS1 kinase assay (electrophoretic mobility shift), p.C604W. As to conditions: C604W, mean ± SD, quadruplicate. It counts as biochemical. The method, then: (§1) For high ATP concentration assays, 1 mM ATP was used. An ECHO® 550 (Labcyte Inc) acoustic dispenser was used to generate duplicate 8 point dilution curves directly into 384-well low-volume polystyrene assay plates (Corning Life Sciences). The reaction was carried out for 90 min at room temperature.

Assay [2] has as its target T2, recombinant full-length wild-type MPS1 (Homo sapiens, UniProt P33981).
T2 construct: For protein expression of full-length MPS1 proteins, Sf9 insect cells were grown at 27° C; made in house; host or cells: Sf9 insect cells (baculovirus, modified pFastBac1)
T2 sequence (P33981 1-857): T1 sequence (P33981 1-857 C604W) with W604C
Put plainly: Recombinant MPS1 kinase assay (electrophoretic mobility shift), WT. It counts as biochemical. The following applies: mean ± SD, quadruplicate. The method, then:
as §1

Another assay has as its system parental HCT116 cells. Put plainly: Flow cytometry cell cycle profiles, parental HCT116. It counts as cell-based, human. The method, then: Cells were fixed overnight at −20° C. in 70% ethanol, washed in PBS, then incubated in 10 μg/ml propidium iodide and 0.5% RNase (Sigma) for 30 min and then analysed using LSRII flow cytometer (BD Biosciences).
Assay [3] concerns NvR12 HCT116 cells (p.C604W). Nature of the assay: Flow cytometry cell cycle profiles, NvR12. It counts as cell-based, human. The following applies: NvR12, 24 hours. The method, then: (§2) Cells were fixed overnight at −20° C. in 70% ethanol, washed in PBS, then incubated in 10 μg/ml propidium iodide and 0.5% RNase (Sigma) for 30 min and then analysed using LSRII flow cytometer (BD Biosciences). To stain for mitosis, cells were incubated for 1 hour at 4° C. with anti-MPM2 antibodies (Millipore, 05-368), then 1 hour at 4° C. with FITC-conjugated secondary antibodies (Life technology).
Background: Flow cytometry measures light scatter and fluorescence of single cells or particles in a stream.

In assay [4] the test system is kinetochore localisation of SAC proteins in HeLa cells. Nature of the assay: Immunofluorescence of kinetochore proteins in HeLa cells. It counts as cell-based. The method, then: (§3) For analysis by immunofluorescence, cells were fixed in 1% formaldehyde for 5 min at room temperature, quenched in glycine, washed in PBS-Triton X-100 (0.1% PBS-T) and incubated for 1 hour in primary antibodies in PBS-T: MAD2 (Bethyl Laboratories Inc., A300-301A), CDC2020 (Millipore, MAB3775), MPS1 (Millipore, 05-682), MPS1 pT33pS37 (Life Technologies, 44-1325G) and ACA (ImmunoVision, HST-0100). After PBS-T washes, cells were incubated with fluorescent-conjugated secondary antibodies (Life Technologies), stained with DAPI (Life Technologies) and mounted onto slides with Vectashield (Vector Labs). Images were acquired using a Zeiss LSM 710 confocal microscope and processed using Velocity 3D Image analysis software (PerkinElmer). Time-lapse micrscopy was performed in 96-well Ibidi plate (Thistle Scientific) using a Diaphot inverted microscope (Nikon), in a humidified CO2 chamber at 37° C., using a motorized stage (Prior Scientific), controlled by Simple PCI software (Compix).

Assay [5] concerns taxol or nocodazole-induced SAC. Nature of the assay: Abrogation of taxol or nocodazole-induced SAC (mitotic index, MPM2 staining and flow cytometry). It counts as cell-based. As to conditions: within 1 hour following inhibitor treatment; 0.6 μM CCT251455. The procedure: as §2
The subject of a further assay is HeLa cells. Nature of the assay: Time-lapse microscopy, time in mitosis and mitotic defects, HeLa. It counts as cell-based. As to conditions: 0.6 μM CCT251455. The procedure: as §3
[6] abbreviates: ATP at Km, read-out: IC50 values at ATP Km.
[7] abbreviates: IC50 values at 1 mM ATP, 1 mM ATP.

Each structure is given as a SMILES string. Where a chain is given by its changes, count along the chain named. Read-outs that look alike come from different tables or passages of the source.

As a reminder, the IC50 is the concentration that inhibits the measured activity by half. As to `Cc1ncc(-c2ccc(Nc3cc4c(cn3)cc(-c3cnn(C)c3)n4C(=O)OC(C)C)cc2)n1C` [Compound 2, Isopropyl 6-(4-(1,2-dimethyl-1H-imidazol-5-yl)-2-phenylamino)-2-(1-methyl-1H-pyrazol-4-yl)-1H-pyrrolo[3,2-c]pyridine-1-carboxylate], the half-inhibitory concentration (IC50) in assay [1] (setting [6]) stood at 13.3 ± 2.9 nM; in assay [1] (setting [7]) it was 16.3 ± 4 nM; in assay [2] (setting [6]), 3.3 ± 1.1 nM; in assay [2] (setting [7]) it was 60 ± 20 nM. Further, the “concentration causing loss of cell cycle profiles” value stood at 600 nM in the assay with parental HCT116 cells (parental, 24 hours) and 100 nM in assay [3].
For the compound `Cn1cc(-c2cc3cnc(Nc4ccc(-c5cncn5C)cc4Cl)cc3n2C(=O)OC(C)(C)C)cn1` [CCT251455, Tert-Butyl 6-(2-Chloro-4-(1-methyl-1H-imidazol-5-yl)phenylamino)-2-(1-methyl-1H-pyrazol-4-yl)-1H-pyrrolo[3,2-c]pyridine-1-carboxylate], in assay [4] (0.6 μM CCT251455), the MPS1 kinetochore localisation entry is given as “increased”; the “MPS1 pT33/S37 and pT676 signals” value was “no longer visible”; the “kinetochore recruitment of BUB1 and BUBR1” value is “reduced, but still visible by microscopy”; the “kinetochore recruitment of MAD2, MAD1, ZW10 and CDC20” value is listed as “severely inhibited”. Besides, the “kinetochore localisation of ZWINT-1, CENP-E, CENP-F and CENP-A pS7” value in assay [4] (controls) was “remained unaffected”. Moreover, in the assay on parental HCT116 cells (HCT116, 24 hour treatment), the “concentration at which cell cycle profiles were abolished” value turned out to be 0.32 µM. In addition, in assay [5], the “cells that had exited mitosis” value was roughly 100%. Further, in the assay with HeLa cells, the “cells with unaligned chromosomes” value was determined as 98% and the “time to exit mitosis” value was roughly 17 min.
